Test results published in patent publication US20090324743A1, “PULMONARY DRUG DELIVERY” (UNIVERSITY OF STRATHCLYDE, priority 2008, published 2009).

Columns and labels:
[1] = after intravenous administration; cited from earlier work
B16 F0 cells [2] = assay: In vivo lung cancer efficacy study, organ weights; details: Table 8; BALB/c female mice; inhalation day 7; Free drug (1 mg/ml), Processed cisplatin-NIV (0.5 mg/ml); sacrificed day 23
[3] = room temperature; cited from earlier work
B16-F0 cells [4] = assay: Tumour development / liver metastases, organ weight and histology on day 21; type: in vivo, BALB/c male mice
Description: (§1) A number of studies have been completed where mice were treated on day 7 (post-tumour induction) with different cisplatin formulations by inhalation and the effect on subsequent tumour burdens, based on organ weight or direct assessment of the number and size distribution of tumours, was assessed 14 days later. The lungs, liver and spleen were cut into longitudinal slices and the kidney bisected and placed in a tissue cassette. After routine processing in paraffin wax, […] sections were mounted on a glass slide, dewaxed in 100% xylene and serially rehydrated in graded ethanol to water. Sections were then stained with haematoxylin and eosin and examined by light microscopy. For each organ the number and size of tiny (unmeasurable), small, medium and large tumours was determined counted in one H&E section. The size of the largest tumour deposit was also noted. The dimensions used to characterise tumours was small (0.5 to 1.4 mm), medium (1.5 to 2.9 mm), or large (>3 mm largest dimension). The percentage of tiny tumours was calculated using the total number of tumours present in the section.

[5] = Cisplatin levels in samples from mice treated by inhalation or intravenous injection (HPLC); type: in vivo, BALB/c mice; details: for Mean cisplatin concentration, Kidney / Mean cisplatin concentration, Liver / Mean cisplatin concentration, Lung lavages / Mean cisplatin concentration, Lungs / Mean cisplatin concentration, Serum / Mean cisplatin concentration, Spleen: 5 minutes after dosing
Description: Mice were treated with the appropriate drug formulation either by intravenous injection of 0.2 ml of the appropriate drug formulation or PBS pH 7.4/saline (controls) or by inhalation with the appropriate drug formulation or saline (controls) using the Buxco® nebulisation system. 0.5 ml of the appropriate formulation or saline was added to the nebuliser which was attached to a Volumatic™ Spacer (Allen and Hanbury, Uxbridge, Middlesex). After 1.5 mins of nebulisation, the nebuliser was switched off, and the mice were exposed to the resulting aerosol for a further 5 minutes. […] Blood was taken by cardiac puncture and allowed to clot by storing for up to 12 hours at 4° C. Serum was separated from clotted blood sample by centrifuging at 13,000 rpm at 4° C., and transferred to a clean eppendorf tube. The lungs of the mouse were inflated by introducing two samples of 0.8 ml PBS pH 7.4 via the trachea and the resulting lung lavages were transferred to a clean eppendorf tube. Various organs were removed from the mouse and stored in 1.5 ml microfuge tubes. All the samples were stored at −20° C. until cisplatin levels within the samples could be determined using an HPLC assay.

B16-F0 cells [6] = assay: Tumour development / liver metastases, organ weight and histology on day 21; type: in vivo, C57BL/6 male mice; details: Table 12 C57BL/6 male
Description: as §1

Leishmania donovani = assay: In vivo efficacy study using Leishmania donovani; parameters: species or system BALB/c mice; details: iv 0.2 ml (0.5 mg/ml cisplatin) on day 7 post-infection; burdens seven days later
Description: BALB/c mice were infected by intravenous injection (tail vein, no anaesthetic) with 1-2×10^7 L. donovani amastigotes (Carter et al., 1988). The day of parasite administration to the mice was designated day 0 of the experiment. On day 7 post-infection mice were treated by intravenous injection with 0.2 ml of the appropriate formulation by intravenous injection, without anaesthetic (n=4/treatment). On day 14 impression smears of the spleen and liver, and a smear of bone marrow, were made on to an individual glass microscope slide for each mouse at sacrifice. The slides were fixed in methanol for 30 secs, stained in 10% aqueous Giemsa stain (BDH, VWR International Ltd., Poole, UK) for 20 minutes, and then allowed to air dry. The number of parasites present/1000 host nuclei for the spleen, liver and bone marrow for each sample was determined at ×1000 magnification. The LDU was calculated by multiplying the number of parasites present/1000 host nuclei by the organ weight (gms) for the spleen and liver.

B16 F0 cells [7] = assay: In vivo lung cancer efficacy study, organ weights; parameters: species or system BALB/c mice; details: sacrificed day 14; for Lung weight: Table 9
Description: BALB/c mice (n=8/treatment) were injected intravenously on day 0 with 1-5×10^5 B16 F0 cells which form metastatic lung and liver tumours in mice (Nakurmura et al., 2002). On day 7 mice were treated either by intravenous injection of 0.2 ml of the appropriate drug formulation or PBS pH 7.4/saline (controls) or by inhalation with the appropriate drug formulation or saline using the Buxco® nebulisation system. 0.5 ml of the appropriate formulation or saline was added to the nebuliser which was attached to a Volumatic™ Spacer (Allen and Hanbury, Uxbridge, Middlesex). After 1.5 mins of nebulisation the nebuliser was switched off and the mice were exposed to the resulting aerosol for a further 5 minutes. Mice were sacrificed on day 14, body weight and the weight of the spleen, liver, lungs and kidney assessed. Lung weight was taken as an indirect measure of tumour burden. In some cases mice were dosed on days 4, 7, 9 and 11. Tumours were easily visible as black areas on the surface of the lungs and liver.

[8] = Table 10, inhalation day 7, cisplatin solution 1 mg/ml, cisplatin-NIV 0.5 mg/ml
[9] = Table 11, inhalation day 7, cisplatin solution 1 mg/ml, cisplatin-NIV 0.1 mg/ml
[10] = Table 11, solution 1 mg/ml, NIV 0.1 mg/ml
[11] = Table 11, solution 1 mg/ml, NIV 0.1 mg/ml, large >3 mm
[12] = Table 11, solution 1 mg/ml, NIV 0.1 mg/ml, medium 1.5 to 2.9 mm
[13] = Table 11, solution 1 mg/ml, NIV 0.1 mg/ml, small 0.5 to 1.4 mm
[14] = Table 12 BALB/c male, inhalation day 7, cisplatin solution 1 mg/ml, cisplatin-NIV 0.5 mg/ml
[15] = Table 12 BALB/c male, solution 1 mg/ml, NIV 0.5 mg/ml
[16] = Table 3, inhalation 6.5 minutes, 0.5 ml of 0.5 mg/ml
[17] = Table 4, inhalation 6.5 minutes, 0.5 ml of 0.5 mg/ml
[18] = inhalation day 7, cisplatin solution 1 mg/ml, cisplatin-NIV 0.5 mg/ml
[19] = solution 1 mg/ml, NIV 0.5 mg/ml
[20] = Table 5, 0.5 mg/ml inhalation 6.5 mins on day 7
[21] = Table 5, 4.44 mg/kg iv (0.2 ml of 0.5 mg/ml) on day 7
[22] = Table 6 Expt 1, inhalation on days 4, 7, 9 and 11, cisplatin solution 0.5 mg/ml, processed cisplatin-NIV as prepared
[23] = Table 6 Expt 2, inhalation day 7 only, 0.1 mg/ml

SMILES: [NH2][Pt]([NH2])([Cl])[Cl] [Cisplatin solution, cisplatin]
- Share of the dose that reaches the lungs [1]: 0.1%
- Lung weight (B16 F0 cells [2]): 0.33 ± 0.02
- Maximum aqueous solubility [3]: approximately 1 mg/ml
- % animals with visible metastases, Liver (B16-F0 cells [4]; [8]): (100%)
- % animals with visible metastases, Lung (B16-F0 cells [4]; [8]): (100%)
- Mean weight, Liver (B16-F0 cells [4]; [8]): 1.53 ± 0.03 g
- Mean weight, Lung (B16-F0 cells [4]; [8]): 0.20 ± 0.01 g
- Liver Weight (B16-F0 cells [4]; [9]): 1.65 ± 0.10
- Lungs Histology, percentage of tiny tumours (B16-F0 cells [4]; [9]): Tiny 60%
- Lungs Weight (B16-F0 cells [4]; [9]): 0.22 ± 0.01
- Liver Histology, D largest tumour mass, breadth (B16-F0 cells [4]; [10]): 1.6 ± 0.43
- Liver Histology, D largest tumour mass, length (B16-F0 cells [4]; [10]): D 2.38
- Lungs Histology, D largest tumour mass, breadth (B16-F0 cells [4]; [10]): 1.19 ± 0.23
- Lungs Histology, D largest tumour mass, length (B16-F0 cells [4]; [10]): D 1.4 ± 0.37 ×
- Liver Histology, number of large tumours (L) (B16-F0 cells [4]; [11]): L 3.8 ± 2.15
- Lungs Histology, number of large tumours (L) (B16-F0 cells [4]; [11]): L 0.40 ± 0.24
- Liver Histology, number of medium tumours (M) (B16-F0 cells [4]; [12]): M 2.2 ± 1.56
- Lungs Histology, number of medium tumours (M) (B16-F0 cells [4]; [12]): M 1.0 ± 0.6
- Liver Histology, number of small tumours (S) (B16-F0 cells [4]; [13]): S 0.4 ± 0.24
- Lungs Histology, number of small tumours (S) (B16-F0 cells [4]; [13]): S 2.5 ± 0.43
- Liver Weight (B16-F0 cells [4]; [14]): 1.74 ± 0.05
- Lungs Weight (B16-F0 cells [4]; [14]): 0.22 ± 0.02
- Liver Tumours, D largest tumour mass, breadth (B16-F0 cells [4]; [15]): 2.3 ± 0.70
- Liver Tumours, D largest tumour mass, length (B16-F0 cells [4]; [15]): D 2.63 ± 0.71 ×
- Liver Tumours, number large (L) (B16-F0 cells [4]; [15]): L 2.5 ± 1.50
- Liver Tumours, number medium (M) (B16-F0 cells [4]; [15]): M 2.0 ± 1.41
- Liver Tumours, number small (S) (B16-F0 cells [4]; [15]): S 3.5 ± 1.32
- Liver Tumours, percentage of tiny tumours (B16-F0 cells [4]; [15]): Tiny 0%
- Lungs Tumours, D largest tumour mass, breadth (B16-F0 cells [4]; [15]): 1.08 ± 0.15
- Lungs Tumours, D largest tumour mass, length (B16-F0 cells [4]; [15]): D 1.45 ± 0.13 ×
- Lungs Tumours, number large (L) (B16-F0 cells [4]; [15]): L 0
- Lungs Tumours, number medium (M) (B16-F0 cells [4]; [15]): M 0.5 ± 0.29
- Lungs Tumours, number small (S) (B16-F0 cells [4]; [15]): S 7.75 ± 1.11
- Lungs Tumours, percentage of tiny tumours (B16-F0 cells [4]; [15]): Tiny 60%
- Detection of cisplatin by conventional HPLC analysis ([5]; 15 minutes after dosing): not possible to detect
- Mean cisplatin concentration, Kidney [5, 16]: 6.81 ± 2.53 μg/ml/g tissue
- Mean cisplatin concentration, Liver [5, 16]: 0.037 ± 0.04 μg/ml/g tissue
- Mean cisplatin concentration, Lung lavages [5, 16]: 0.004 ± 0.002 µg/mL
- Mean cisplatin concentration, Lungs [5, 16]: 0 ± 0 μg/ml/g tissue
- Mean cisplatin concentration, Serum [5, 16]: 0.268 ± 0.1 µg/mL
- Mean cisplatin concentration, Spleen [5, 16]: 0.018 ± 0.01 μg/ml/g tissue
- Mean cisplatin concentration, Kidney ([5]; Table 3, iv 0.2 ml, 0.5 mg/ml): 0.951 ± 0.35 μg/ml/g tissue
- Mean cisplatin concentration, Liver ([5]; Table 3, iv 0.2 ml, 0.5 mg/ml): 0.19 ± 0.13 μg/ml/g tissue
- Mean cisplatin concentration, Lung lavages ([5]; Table 3, iv 0.2 ml, 0.5 mg/ml): 0.13 ± 0.07 µg/mL
- Mean cisplatin concentration, Lungs ([5]; Table 3, iv 0.2 ml, 0.5 mg/ml): 0 ± 0 μg/ml/g tissue
- Mean cisplatin concentration, Serum ([5]; Table 3, iv 0.2 ml, 0.5 mg/ml): 0.296 ± 0.13 µg/mL
- Mean cisplatin concentration, Spleen ([5]; Table 3, iv 0.2 ml, 0.5 mg/ml): 0.065 ± 0.02 μg/ml/g tissue
- Mean cisplatin concentration, Kidney [5, 17]: 0.55 ± 0.48 μg/ml/g tissue
- Mean cisplatin concentration, Liver [5, 17]: 0.032 ± 0.02 μg/ml/g tissue
- Mean cisplatin concentration, Lung lavages [5, 17]: 0.095 ± 0.06 µg/mL
- Mean cisplatin concentration, Lungs [5, 17]: 0.032 ± 0.15 μg/ml/g tissue
- Mean cisplatin concentration, Serum [5, 17]: 0 ± 0 µg/mL
- Mean cisplatin concentration, Spleen [5, 17]: 0.346 ± 0.19 μg/ml/g tissue
- Mean cisplatin concentration, Kidney ([5]; Table 4, iv 0.2 ml, 0.5 mg/ml): 0.55 ± 0.48 μg/ml/g tissue
- Mean cisplatin concentration, Liver ([5]; Table 4, iv 0.2 ml, 0.5 mg/ml): 0.032 ± 0.02 μg/ml/g tissue
- Mean cisplatin concentration, Lung lavages ([5]; Table 4, iv 0.2 ml, 0.5 mg/ml): 0.095 ± 0.06 µg/mL
- Mean cisplatin concentration, Lungs ([5]; Table 4, iv 0.2 ml, 0.5 mg/ml): 0.032 ± 0.015 μg/ml/g tissue
- Mean cisplatin concentration, Serum ([5]; Table 4, iv 0.2 ml, 0.5 mg/ml): 0.207 ± 0.02 µg/mL
- Mean cisplatin concentration, Spleen ([5]; Table 4, iv 0.2 ml, 0.5 mg/ml): 0.346 ± 0.10 μg/ml/g tissue
- Liver Weight (B16-F0 cells [6]; [18]): 1.76 ± 0.16
- Lungs Weight (B16-F0 cells [6]; [18]): 0.25 ± 0.03
- Liver Tumours, D largest tumour mass, breadth (B16-F0 cells [6]; [19]): 4.44 ± 0.56
- Liver Tumours, D largest tumour mass, length (B16-F0 cells [6]; [19]): D 5.64 ± 0.88 ×
- Liver Tumours, number large (L) (B16-F0 cells [6]; [19]): L 6.4 ± 2.95
- Liver Tumours, number medium (M) (B16-F0 cells [6]; [19]): M 2.8 ± 1.01
- Liver Tumours, number small (S) (B16-F0 cells [6]; [19]): S 0.20 ± 0.20
- Lungs Tumours, D largest tumour mass, breadth (B16-F0 cells [6]; [19]): 0.7 ± 0.20
- Lungs Tumours, D largest tumour mass, length (B16-F0 cells [6]; [19]): D 1.35 ± 0.35 ×
- Lungs Tumours, number large (L) (B16-F0 cells [6]; [19]): L 0
- Lungs Tumours, number medium (M) (B16-F0 cells [6]; [19]): M 1.0 ± 0.6
- Lungs Tumours, number small (S) (B16-F0 cells [6]; [19]): S 1.2 ± 0.73
- Lungs Tumours, percentage of tiny tumours (B16-F0 cells [6]; [19]): Tiny 0%
- Mean number of parasites ± SE (L. donovani liver parasite burdens) (Leishmania donovani): 2142 ± 249
- Mean organ weight, Liver (B16 F0 cells [7]; [20]): 1.47 ± 0.05 g
- Mean organ weight, Lungs (B16 F0 cells [7]; [20]): 0.22 ± 0.01 g
- Mean organ weight, Liver (B16 F0 cells [7]; [21]): 1.44 ± 0.16 g
- Mean organ weight, Lungs (B16 F0 cells [7]; [21]): 0.42 ± 0.03 g
- Mean organ weight, Liver (B16 F0 cells [7]; [22]): 1.19 ± 0.07 g
- Mean organ weight, Lungs (B16 F0 cells [7]; [22]): 0.21 ± 0.01 g
- Mean organ weight, Liver (B16 F0 cells [7]; [23]): 1.30 ± 0.03 g
- Mean organ weight, Lungs (B16 F0 cells [7]; [23]): 0.21 ± 0.01 g
- Lung weight (B16 F0 cells [7]; Female mice, inhalation day 7, 1 mg/ml): 0.19 ± 0.01
- Lung weight (B16 F0 cells [7]; Male mice, inhalation day 7, 0.5 mg/ml): 0.23 ± 0.02
